Data taken from US20110178053A1, “AZACARBOLINE DERIVATIVES, PREPARATION METHOD THEREOF AND THERAPEUTIC USE OF SAME” (SANOFI-AVENTIS, priority 2008, published 2011).

Experiments:
[1] = biological target: T1, Pim-1 (Homo sapiens, UniProt P11309); assay: TR-FRET assay, Pim-1 kinase (phosphorylation of Bad Ser112); assay type: biochemical; conditions: TR-FRET; ATP 40 μM; read-out: IC50 Pim1
T1 construct: His6-labelled recombinant full-length human Pim-1, Pim-2 or Pim-3 protein; His6; made in house
Outline: (§1)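 For each of Pim-1, Pim-2 and Pim-3 (His6-tagged full-length human), compounds were titrated over 10 concentrations in duplicate, typically from 30 μM, with ATP at 40 μM, equal to apparent KM. Bad Ser112 phosphorylation was read as the 665/615 nm TR-FRET ratio and IC50 fitted by 4-parameter logistic model.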

[2] = biological target: T2, Pim-2 (Homo sapiens, UniProt Q9P1W9); assay: TR-FRET assay, Pim-2 kinase (phosphorylation of Bad Ser112); assay type: biochemical; conditions: TR-FRET; ATP 40 μM; read-out: IC50 Pim2
T2 construct: His6-labelled recombinant full-length human Pim-1, Pim-2 or Pim-3 protein; His6; made in house
Outline: as §1

[3] = biological target: T3, Pim-3 (Homo sapiens, UniProt Q86V86); assay: TR-FRET assay, Pim-3 kinase (phosphorylation of Bad Ser112); assay type: biochemical; conditions: TR-FRET; ATP 40 μM; read-out: IC50 Pim3
T3 construct: His6-labelled recombinant full-length human Pim-1, Pim-2 or Pim-3 protein; His6; made in house
Outline: as §1

[4] = biological target: PLK1 (Homo sapiens, UniProt P53350); assay: PLK1 biochemical inhibition
PLK1, sequence (P53350 whole entry, species assumed): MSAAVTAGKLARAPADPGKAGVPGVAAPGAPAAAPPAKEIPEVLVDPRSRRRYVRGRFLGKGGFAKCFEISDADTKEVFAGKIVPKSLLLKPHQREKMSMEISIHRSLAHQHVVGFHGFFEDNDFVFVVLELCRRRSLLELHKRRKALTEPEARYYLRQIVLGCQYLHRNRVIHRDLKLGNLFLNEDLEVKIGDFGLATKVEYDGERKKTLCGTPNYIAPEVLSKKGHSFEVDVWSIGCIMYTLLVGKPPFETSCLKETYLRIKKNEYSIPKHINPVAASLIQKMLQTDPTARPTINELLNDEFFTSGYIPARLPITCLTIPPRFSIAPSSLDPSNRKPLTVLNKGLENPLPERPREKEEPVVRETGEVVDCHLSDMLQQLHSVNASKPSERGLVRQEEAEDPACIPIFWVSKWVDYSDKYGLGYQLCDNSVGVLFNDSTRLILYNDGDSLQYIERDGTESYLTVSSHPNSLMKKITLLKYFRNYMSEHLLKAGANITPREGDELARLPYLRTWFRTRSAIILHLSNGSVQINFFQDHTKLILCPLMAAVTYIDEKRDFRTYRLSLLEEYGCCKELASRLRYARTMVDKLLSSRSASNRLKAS

T2 sequence (Q9P1W9 whole entry): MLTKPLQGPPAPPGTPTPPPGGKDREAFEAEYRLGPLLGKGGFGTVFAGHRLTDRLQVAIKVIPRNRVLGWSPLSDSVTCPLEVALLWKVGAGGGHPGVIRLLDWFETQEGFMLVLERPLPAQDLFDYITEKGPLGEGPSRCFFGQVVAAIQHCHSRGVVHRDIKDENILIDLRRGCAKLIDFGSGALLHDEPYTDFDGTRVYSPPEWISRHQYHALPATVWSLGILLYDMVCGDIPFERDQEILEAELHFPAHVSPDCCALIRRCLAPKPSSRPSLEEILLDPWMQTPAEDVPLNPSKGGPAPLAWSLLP
T1 sequence (P11309 whole entry): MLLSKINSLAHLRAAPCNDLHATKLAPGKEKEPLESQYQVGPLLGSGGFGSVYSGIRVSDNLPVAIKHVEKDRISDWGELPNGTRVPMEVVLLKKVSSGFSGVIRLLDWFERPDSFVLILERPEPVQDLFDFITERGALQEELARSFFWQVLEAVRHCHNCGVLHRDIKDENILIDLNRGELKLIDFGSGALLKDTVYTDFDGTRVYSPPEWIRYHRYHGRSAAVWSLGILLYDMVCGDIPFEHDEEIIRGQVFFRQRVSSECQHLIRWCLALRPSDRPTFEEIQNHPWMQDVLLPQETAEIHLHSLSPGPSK

| Compound | IC50 [1] | IC50 [2] | IC50 [3] | IC50 [4] |
| --- | --- | --- | --- | --- |
| CS(=O)(=O)NCc1cccc(-c2c(F)cnc3[nH]c4cnc(-c5cccnc5)cc4c23)c1 [Example 62, N-{3-[3-fluoro-6-(pyrid-3-yl)-9H-pyrrolo[2,3-b:5,4-c′]-dipyrid-4-yl]benzyl}-methanesulfonamide] | 1 to 100 nM | 1000 to 5000 nM | 1 to 100 nM | 1 to 100 nM |
| Fc1cnc2[nH]c3cnc(-c4ccsc4)cc3c2c1 [Example 162, 3-fluoro-6-(thiophen-3-yl)-9H-pyrrolo[2,3-b:5,4-c′]dipyridine] | > 5000 nM |  | > 5000 nM | 1000 to 5000 nM |
| CN1CCN(CCCn2cc(-c3cnc4[nH]c5cnc(-c6cccnc6)cc5c4c3)cn2)CC1 [Example 124, 3-{1-[3-(4-methyl-piperazin-1-yl)propyl]-1H-pyrazol-4-yl}-6-(pyrid-3-yl)-9H-pyrrolo[2,3-b:5,4-c′]-dipyridine] | 1 to 100 nM | 100 to 1000 nM | 1 to 100 nM | 100 to 1000 nM |
| O=C(c1c(F)cnc2[nH]c3cnc(-c4cccnc4)cc3c12)N1CCOCC1 [Example 36, [3-fluoro-6-(pyrid-3-yl)-9H-pyrrolo[2,3-b:5,4-c′]-dipyrid-4-yl](morpholin-4-yl)methanone] | 100 to 1000 nM | > 5000 nM | 1000 to 5000 nM | 1000 to 5000 nM |
| Cn1ccc(-c2cnc3[nH]c4cnc(-c5cccnc5)cc4c3c2)n1 [Example 116, 3-(1-methyl-1H-pyrazol-3-yl)-6-(pyrid-3-yl)-9H-pyrrolo[2,3-b:5,4-c′]dipyridine] | 1 to 100 nM | > 5000 nM | 1 to 100 nM | 1000 to 5000 nM |
| CS(=O)(=O)NCc1ccc(-c2c(F)cnc3[nH]c4cnc(-c5cccnc5)cc4c23)cc1 [Example 66, N-{4-[3-fluoro-6-(pyrid-3-yl)-9H-pynolo[2,3-b:5,4-c′]-dipyrid-4-yl]benzyl}-methanesulfonamide] | 1 to 100 nM | 100 to 1000 nM | 1 to 100 nM | 1 to 100 nM |
| COCCOc1cnc2[nH]c3cnc(-c4cccnc4)cc3c2c1 [Example 113, 3-(2-methoxyethoxy)-6-(pyrid-3-yl)-9H-pyrrolo[2,3-b:5,4-c′]dipyridine] | 1 to 100 nM | 1000 to 5000 nM | 1 to 100 nM | 1000 to 5000 nM |
| COc1cnc2[nH]c3cnc(-c4cnn(CCCCCNC(=O)OC(C)(C)C)c4)cc3c2c1 [Example 167, 2-methyl-2-propyl {5-[4-(3-methoxy-9H-pyrrolo[2,3-b:5,4-c′]dipyrid-6-yl)-1H-pyrazol-1-yl]pentyl}carbamate] | 100 to 1000 nM | 1000 to 5000 nM | 100 to 1000 nM | > 5000 nM |
| Fc1cnc2[nH]c3cnc(-c4cccnc4)cc3c2c1 [Example 2, 3-fluoro-6-(pyrid-3-yl)-9H-pyrrolo[2,3-b:5,4-c′] dipyridine] | 100 to 1000 nM |  |  | 100 to 1000 nM |
| c1cncc(-c2cc3c(cn2)[nH]c2ncc(-c4cn[nH]c4)cc23)c1 [Example 126, 3-(1H-pyrazol-4-yl)-6-(pyrid-3-yl)-9H-pyrrolo-[2,3-b:5,4-c′]-dipyridine] | 1 to 100 nM | > 5000 nM | 100 to 1000 nM | 1000 to 5000 nM |
| CCCN(CCC)CCCN1CCN(c2c(F)cnc3[nH]c4cnc(-c5cccnc5)cc4c23)CC1 [Example 88, 3-{4-[3-fluoro-6-(pyrid-3-yl)-9H-pyrrolo[2,3-b:5,4-c′]dipyrid-4-yl]piperazin-1-yl}-N,N-dipropylpropan-1-amine] | 1 to 100 nM | 100 to 1000 nM | 1 to 100 nM | 1000 to 5000 nM |
| CCCN(C)C(=O)c1cnc2[nH]c3cnc(-c4cccnc4)cc3c2c1 [Example 6, N-methyl-N-propyl-6-(pyrid-3-yl)-9H-pyrrolo[2,3-b:5,4-c′]dipyridine-3-carboxamide] | 100 to 1000 nM | 1000 to 5000 nM | 1000 to 5000 nM | > 5000 nM |
| c1cncc(-c2cc3c(cn2)[nH]c2ncc(-c4ccc(N5CCOCC5)cc4)cc23)c1 [Example 121, 3-[4-(morpholin-4-yl)phenyl]-6-(pyrid-3-yl)-9H-pyrrolo[2,3-b:5,4-c′]-dipyridine] | 1 to 100 nM | 1000 to 5000 nM | 1 to 100 nM | 1000 to 5000 nM |
| O=C(c1ccccc1)c1c(F)cnc2[nH]c3cnc(-c4cccnc4)cc3c12 [Example 34, [3-fluoro-6-(pyrid-3-yl)-9H-pyrrolo[2,3-b:5,4-c′]-dipyrid-4-yl](phenyl)-methanone] | 1 to 100 nM | > 5000 nM | 1000 to 5000 nM | 100 to 1000 nM |
| CCN(CC)CCn1nc(C)c(-c2cnc3[nH]c4cnc(-c5cccnc5)cc4c3c2)c1C [Example 125, 2-{3,5-dimethyl-4-[6-(pyrid-3-yl)-9H-pyrrolo[2,3-b:5,4-c′]dipyrid-3-yl]-1H-pyrazol-1-yl}-N,N-diethyl-ethanamine] | 1 to 100 nM |  | 1 to 100 nM | 1000 to 5000 nM |
| O=C(O)c1cc2c(cn1)[nH]c1ncccc12 [Example 172, 9H-pyrrolo[2,3-b:5,4-c′]dipyridine-6-carboxylic acid] | > 5000 nM | > 5000 nM |  | > 5000 nM |
| CN(C)CC(=O)N1CCN(c2cccc(-c3cnc4[nH]c5cnc(-c6cccnc6)cc5c4c3)c2)CC1 [Example 134, 2-(dimethylamino)-1-(4-{3-[6-(pyrid-3-yl)-9H-pyrrolo[2,3-b:5,4-c′]dipyrid-3-yl]-phenyl}piperazin-1-yl)ethanone] | 1 to 100 nM | > 5000 nM | 1 to 100 nM |  |
| Cc1cc(N2CCNCC2)ncc1-c1cnc2[nH]c3cnc(-c4cccnc4)cc3c2c1 [Example 157, 3-[4-methyl-6-(piperazin-1-yl)pyrid-3-yl]-6-(pyrid-3-yl)-9H-pyrrolo[2,3-b:5,4-c′]-dipyridine] | 1 to 100 nM | 100 to 1000 nM | 1 to 100 nM |  |
| CS(=O)(=O)Nc1ccccc1-c1c(F)cnc2[nH]c3cnc(-c4cccnc4)cc3c12 [Example 70, N-{2-[3-fluoro-6-(pyrid-3-yl)-9H-pyrrolo[2,3-b:5,4-c′]-dipyrid-4-yl]phenyl}-methanesulfonamide] | 1000 to 5000 nM | > 5000 nM | > 5000 nM |  |
| Brc1cnc2[nH]c3cnc(-c4cccnc4)cc3c2c1 [Example 9, 3-bromo-6-(pyrid-3-yl)-9H-pyrrolo[2,3-b:5,4-c′]dipyridine] | 100 to 1000 nM | 1000 to 5000 nM | 100 to 1000 nM |  |
| CC(=O)NCc1ccc(-c2c(F)cnc3[nH]c4cnc(-c5cccnc5)cc4c23)cc1 [Example 61, N-{4-[3-fluoro-6-(pyrid-3-yl)-9H-pyrrolo[2,3-b:5,4-c′]-dipyrid-4-y]benzyl}-acetamide] | 1 to 100 nM | 1000 to 5000 nM | 1 to 100 nM |  |
| Fc1cnc2[nH]c3cnc(-c4cccnc4)cc3c2c1-c1cccc(N2CCOCC2)c1 [Example 31, 3-fluoro-4-[3-(morpholin-4-yl)phenyl]-6-(pyrid-3-yl)-9H-pyrrolo [2,3-b:5,4-c′]dipyridine] | 100 to 1000 nM | > 5000 nM | 1000 to 5000 nM |  |
| CC(C)COC(=O)c1cnc2[nH]c3cnc(-c4cccnc4)cc3c2c1 [Example 18, 2-methylpropyl 6-(pyrid-3-yl)-9H-pyrrolo[2,3-b:5,4-c′]dipyridine-3-carboxylate] | 1 to 100 nM | > 5000 nM | 100 to 1000 nM |  |
| Cn1cc(-c2cc3c(cn2)[nH]c2ncc(F)c(-c4ccc(NS(C)(=O)=O)cc4)c23)cn1 [Example 171, N-{-4-[3-fluoro-6-(1-methyl-1H-pyrazol-4-yl)-9H-pyrrolo[2,3-b:5,4-c′]dipyrid-4-yl]-phenyl}methane sulfonamide] | 1 to 100 nM | 1 to 100 nM | 1 to 100 nM |  |
| Cc1cc(N2CCN(C(=O)OC(C)(C)C)CC2)ncc1-c1cnc2[nH]c3cnc(-c4cccnc4)cc3c2c1 [Example 156, 2-methyl-2-propyl 4-{4-methyl-5-[6-(pyrid-3-yl)-9H-pyrrolo[2,3-b:5,4-c′]dipyrid-3-yl]-pyrid-2-yl}piperazine-1-carboxylate] | 1 to 100 nM | > 5000 nM | 100 to 1000 nM |  |
| c1cncc(-c2cc3c(cn2)[nH]c2ncc(-c4ccc(OCCN5CCOCC5)cc4)cc23)c1 [Example 148, 3-{4-[2-(morpholin-4-yl)ethoxy]phenyl}-6-(pyrid-3-yl)-9H-pyrrolo[2,3-b:5,4-c′]-dipyridine] | 1 to 100 nM | 100 to 1000 nM | 1 to 100 nM |  |
| c1cncc(-c2cc3c(cn2)[nH]c2ncc(-c4ccc(N5CCN(C6CC6)CC5)cc4)cc23)c1 [Example 141, 3-[4-(4-cyclopropylpiperazin-1-yl)phenyl]-6-(pyrid-3-yl)-9H-pyrrolo[2,3-b:5,4-c′]-dipyridine] | 1 to 100 nM | 1000 to 5000 nM | 1 to 100 nM |  |
| O=C(O)CCC(=O)Nc1cccc(-c2c(F)cnc3[nH]c4cnc(-c5cccnc5)cc4c23)c1 [Example 65, acide 4-({3-[3-fluoro-6-(pyrid-3-yl)-9H-pyrrolo[2,3-b:5,4-c′]-dipyrid-4-yl]-phenyl}amino)-4-oxobutanoic acid] | 100 to 1000 nM | > 5000 nM | 1000 to 5000 nM |  |
| Cn1ccc2cc(-c3c(F)cnc4[nH]c5cnc(-c6cccnc6)cc5c34)ccc21 [Example 59, 3-fluoro-4-(1-methyl-1H-indol-5-yl)-6-(pyrid-3-yl)-9H-pyrrolo[2,3-b:5,4-c′]-dipyridine] | 1 to 100 nM | > 5000 nM | 100 to 1000 nM |  |
| COc1ccncc1-c1cc2c(cn1)[nH]c1ncc(F)cc12 [Example 160, 3-fluoro-6-(4-methoxypyrid-3-yl)-9H-pyrrolo[2,3-b:5,4-c′]dipyridine] | 100 to 1000 nM | > 5000 nM | 1000 to 5000 nM |  |
